Patent publication US20100004248A1, “Use of a Nitric Oxide Synthase Modulator for the Treatment of Cardiac Indications” (priority 2005, published 2010)

Assays:
[1] = tested on: intact heart, beta-adrenergic stimulation by ISO; test: Contractility response of intact heart to isoproterenol (ISO); assay type: in vivo, mouse
Source text: Regulation of acute beta-adrenergic stress by PDE5a inhibition (resulting in a rise in cGMP and activation of protein kinase G) requires the activity of nitric oxide synthase (NOS). […] This can be offset by chronic distal activation of the NO target protein soluble guanylate cyclase 9sGC). At the left are bars depicting the contractility response of an intact heart to ISO before and after co-administration of SIL. The ISO response is normally blunted by nearly 80%. The middle bars show data from mice with NOS inhibited by L-NAME (1 mg/L in drinking water). […] However, if one continues to treat hearts with the soluble guanylate cyclase activator (BAY 41-8543) for a week-all the while continuing NOS inhibition with L-NAME, the ability of SIL to suppress adrenergic stimulation is restored.

[2] = tested on: C57/BL6 WT mice subjected to TAC pressure overload; test: Body weight and heart weight in mice subjected to transverse aortic constriction (TAC); assay type: in vivo, mouse; conditions: TAC 3 weeks, oral co-treatment 1 mg/g food, mean ± sem
Source text: Male NOS3 null mice (NOS3^−/−) and C57/BL6 WT controls (8-11 weeks, Jackson Labs, Bar Harbor, Me., USA) were used. Pressure overload was produced by transverse aorta constriction (TAC). Briefly, The aortic arch was isolated by entering the extrapleural space between the second and third rib, and afterwards the transverse aorta was isolated between the right and left carotid arteries. A 7-0 prolene suture ligature was tied around the transverse aorta against a 27-gauge needle to produce a 65-70% constriction after the removal of the needle. After closing the chest, animals were extubated, and a subcutaneous injection of morphine sulphate 0.2 mg, was administered before they returned to their cages. Animal's ventilatory and circulatory status was checked every 30 minutes during the first 2 hours. Sham-operated mice underwent the same operation except for aortic constriction. […] Animals were randomized to receive placebo or BH4 (120 mg/kg/d) for the next 5 weeks. At the end of the study, i.e. at 9 weeks, animal were sacrificed to receive tissue or underwent in vivo PV-loop analysis. […] Control mice were subject to sham operations, and animals were studied 3-9 weeks following surgery. […]

[3] = tested on: C57/BL6 WT mice subjected to TAC pressure overload; test: Transthoracic echocardiography in conscious TAC mice; assay type: in vivo, mouse
Source text: (§1) Male NOS3 null mice (NOS3^−/−) and C57/BL6 WT controls (8-11 weeks, Jackson Labs, Bar Harbor, Me., USA) were used. Pressure overload was produced by transverse aorta constriction (TAC). Briefly, The aortic arch was isolated by entering the extrapleural space between the second and third rib, and afterwards the transverse aorta was isolated between the right and left carotid arteries. A 7-0 prolene suture ligature was tied around the transverse aorta against a 27-gauge needle to produce a 65-70% constriction after the removal of the needle. After closing the chest, animals were extubated, and a subcutaneous injection of morphine sulphate 0.2 mg, was administered before they returned to their cages. Animal's ventilatory and circulatory status was checked every 30 minutes during the first 2 hours. Sham-operated mice underwent the same operation except for aortic constriction. […] Animals were randomized to receive placebo or BH4 (120 mg/kg/d) for the next 5 weeks. At the end of the study, i.e. at 9 weeks, animal were sacrificed to receive tissue or underwent in vivo PV-loop analysis. […] Control mice were subject to sham operations, and animals were studied 3-9 weeks following surgery. An additional group of wild-type animals were subjected to TAC for 3 weeks while co-treated with oral tetrahydrobiopterin (BH4) (Sigma-Aldrich) (1 mg/g food) mixed in their rodent chow, providing 5 mg/day based on 4-6 g daily diet^8.
(§2) Two different BH4 treatment protocols are used. For experiments related to FIGS. 1-7, where prevention of cardiac indications is described BH4 is provided orally as a treatment starting 2 days after TAC surgery (once mice are again eating oral diet). For those figures related to treatment of established cardiac indications, FIGS. 8-23, BH4 is provided orally but this is delayed for 4 weeks to establish substantial cardiac hypertrophy, remodeling, and NOS-uncoupling. Then the treatment is provided for the remaining 5 week period.
For folate studies, C57/BL6 WT were treated with folate (10 mg/kg/day) or with placebo for a 9 week period during which time the hearts were exposed to TAC.
In vivo cardiac morphology was assessed by transthoracic echocardiography (Acuson Sequoia C256, 13 MHz transducer, Siemens) in conscious mice. M-mode left ventricular (LV) end-systolic and end-diastolic dimensions were averaged from 3-5 beats. Left ventricular ejection fraction (LVEF) and percent fractional shortening (% FS) were calculated as: LVEF=[(LVEDD)^3-(LVESD)^3]/(LVEDD)^3×100; % FS=(LVEDD−LVESD)/LVEDD×100. Wall thickness of lateral freewall and intraventricular septum were averaged. Studies and analysis were performed blinded to heart condition.

[4] = tested on: C57/BL6 WT mice subjected to TAC pressure overload; test: In vivo hemodynamics, PV loop analysis, in TAC mice; parameters: species or system mouse; conditions: TAC 3 weeks, oral co-treatment 1 mg/g food, mean ± sem
Source text: as §1, §2
In vivo left ventricular (LV) function was assessed by pressure-volume catheter^12,13. Mice were anesthetized with 1-2% isoflurane, urethane ([…], i.p.), etomidate (5-10 mg/kg, i.p.), and morphine (1-2 mg/kg, i.p.), underwent tracheostomy, and were ventilated with 6-7 μL/g tidal volume and 130 breaths/min. Volume expansion (12.5% human albumin, 50-100 μL over 5 min) was provided through a 30 G cannula via the right external jugular vein. The left ventricular apex was exposed through an incision between the 7-8th rib, and a catheter, specifically a 1.4 Fr PV catheter (SPR 839, Millar Instruments, Inc.), was advanced through the apex to lie along the longitudinal axis. Absolute volume was calibrated, and pressure-volume data was measured at steady state and during transient reduction of venous return as reported^13

[5] = biological target: T1, NOS (Mus musculus, UniProt P70313); test: Luminol chemiluminescence of heart tissue extracts with or without co-incubation with L-NAME (NOS-derived O2−); assay type: biochemical; conditions: 1 mM co-incubation
T1 construct: from tissue; host or cells: mouse left ventricular tissue homogenate
T1 sequence (P70313 2-1202): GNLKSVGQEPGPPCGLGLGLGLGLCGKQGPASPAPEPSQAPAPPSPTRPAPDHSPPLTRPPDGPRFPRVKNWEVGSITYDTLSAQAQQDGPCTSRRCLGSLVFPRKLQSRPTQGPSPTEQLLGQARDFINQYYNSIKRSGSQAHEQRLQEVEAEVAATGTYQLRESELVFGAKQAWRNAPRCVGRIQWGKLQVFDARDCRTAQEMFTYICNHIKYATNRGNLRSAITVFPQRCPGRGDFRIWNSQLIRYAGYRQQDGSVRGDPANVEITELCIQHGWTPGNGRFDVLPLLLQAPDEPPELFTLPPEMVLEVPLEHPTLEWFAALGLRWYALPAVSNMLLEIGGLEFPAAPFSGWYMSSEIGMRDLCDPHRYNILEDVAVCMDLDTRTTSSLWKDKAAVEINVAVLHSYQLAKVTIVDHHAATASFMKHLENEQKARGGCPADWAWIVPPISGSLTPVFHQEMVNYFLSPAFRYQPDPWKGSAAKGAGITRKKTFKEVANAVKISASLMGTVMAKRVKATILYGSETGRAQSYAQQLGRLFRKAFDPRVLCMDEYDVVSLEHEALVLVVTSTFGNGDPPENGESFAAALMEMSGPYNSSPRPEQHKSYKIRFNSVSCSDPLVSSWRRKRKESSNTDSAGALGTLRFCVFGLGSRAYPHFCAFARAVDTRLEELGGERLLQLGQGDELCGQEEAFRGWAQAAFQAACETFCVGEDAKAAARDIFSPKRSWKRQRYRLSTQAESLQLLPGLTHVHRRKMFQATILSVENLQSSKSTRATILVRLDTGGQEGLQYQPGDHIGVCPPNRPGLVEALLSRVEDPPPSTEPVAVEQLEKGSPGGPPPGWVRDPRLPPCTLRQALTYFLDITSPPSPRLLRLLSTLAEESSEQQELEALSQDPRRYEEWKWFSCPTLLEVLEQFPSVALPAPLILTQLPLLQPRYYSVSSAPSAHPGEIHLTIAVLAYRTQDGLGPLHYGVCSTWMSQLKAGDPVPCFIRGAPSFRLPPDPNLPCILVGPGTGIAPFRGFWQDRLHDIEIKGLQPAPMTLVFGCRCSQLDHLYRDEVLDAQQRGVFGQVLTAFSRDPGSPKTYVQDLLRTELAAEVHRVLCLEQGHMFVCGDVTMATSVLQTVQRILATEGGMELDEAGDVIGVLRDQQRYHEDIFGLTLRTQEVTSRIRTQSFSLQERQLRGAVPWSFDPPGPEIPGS
Protocol: Given the decline in NO-synthetic activity, it was next tested whether NOS-derived O2^− increased with TAC. Tissue extracts were subjected to luminol chemiluminescence assay with or without co-incubation with the NOS inhibitor L-NAME (1 mM). The relative contribution of NOS was minimal under basal conditions, but rose markedly (˜50%) after 3- and 9-weeks TAC (FIG. 6D). Control data in NOS3^−/− hearts confirmed this to be from NOS3 and not the other NOS isoforms.
Reactive oxygen species generation was examined by several independent methods. Superoxide production in left ventricular tissue homogenates was determined by luminol-enhanced chemiluminescence (EMD Biosciences). Flash frozen myocardium was homogenized in iced PBS buffer, centrifuged, and the precipitate re-suspended in assay buffer to a final concentration of 100 μM luminol following manufacturer's instructions. Phorbol-12-myristate-13-acetate or other oxidase stimulators were not used in the assay. Data were normalized by sample weight. […] Nitrotyrosine was also quantitatively assessed by ELISA assay (Oxis International).

[6] = healthy subjects, cited from earlier work
[7] = tested on: Adult myocytes isolated from wild-type C57/B16 mouse hearts; test: Sarcomere shortening of isolated adult myocytes exposed to isoproterenol; assay type: cell-based; conditions: myocytes from 3-4 weeks TAC hearts first treated with the anti-oxidant
[8] = WT mice, TAC 3 weeks, oral co-treatment 1 mg/g food, mean ± sem
[9] = TAC up to 9 weeks, folate 10 mg/kg/day vs placebo, p<0.05

Compound: Nc1nc(-c2nn(Cc3ccccc3F)c3ncccc23)nc(N)c1N1CCOCC1 [BAY 41-8543]
- restoration of the ability of SIL to suppress ISO stimulated contractility ([1]; acute administration of sGC activator, L-NAME for 1 week): does not reverse this
- restoration of the ability of SIL to suppress adrenergic stimulation ([1]; sGC activator for a week while continuing L-NAME): restored

Compound: C[C@H](O)[C@H](O)[C@H]1CNc2nc(N)[nH]c(=O)c2N1 [BH4, (6R)-5,6,7,8-tetrahydrobiopterin]
- Heart Weight (HW) [2]: 170.3 ± 3.9 mg
- Fractional Shortening [3, 8]: 61.7 ± 1.7 %
- LV diameter Diastole [3, 8]: 2.87 ± 0.06 mm
- LV diameter Systole [3, 8]: 1.12 ± 0.06 mm
- Wall thickness [3, 8]: 1.09 ± 0.03 mm
- Arterial Elastance [4]: 10.6 ± 0.7 mmHg/μL
- Ejection Fraction [4]: 78.4 ± 5.8 %
- End-diastolic Volume [4]: 20.5 ± 1.9 µL
- End-systolic Elastance [4]: 115.1 ± 9.6 mmHg/μL · g
- End-systolic Volume [4]: 4.8 ± 1.7 µL
- Heart RateR [4]: 603.3 ± 22.9 min⁻¹
- LV Systolic Pressure [4]: 193.0 ± 1.7 mmHg
- Peak Power Index [4]: 75.5 ± 10.5 mmHg/s
- Tau [4]: 3.5 ± 0.2 ms
- dPdtmn [4]: −15743 ± 1325 mmHg/s
- dPdtmx [4]: 17003 ± 1125 mmHg/s

Compound: COC(=O)[C@@H](N)CCCNC(=N)N[N+](=O)[O-] [L-NAME]
- inhibition of luminol chemiluminescence ([5]; 3 weeks and 9 weeks WT-TAC heart lysates): ~50%
- inhibition of luminol chemiluminescence ([5]; baseline (sham) heart lysates): < 15%

Compound: CN1CC(=O)N2[C@H](c3ccc4c(c3)OCO4)c3[nH]c4ccccc4c3C[C@@H]2C1=O [Tadalafil, tadalafil]
- time of peak plasma concentration post-dose ([6]; oral 20 mg dose): two
- apparent oral clearance (CL/F) ([6]; oral): 2.48 L/h
- mean elimination half-life ([6]; oral): about 17.5 h

Compound: Nc1nc2ncc(CNc3ccc(C(=O)N[C@@H](CCC(=O)O)C(=O)O)cc3)nc2c(=O)[nH]1 [folate, folic acid]
- LV mass [3, 9]: reduced
- cardiac dilation [3, 9]: diminished
- Ejection Fraction ([3]; TAC up to 9 weeks, folate 10 mg/kg/day vs placebo, p=0.05): significantly improved

Compound: N[C@@H](CCC(=O)N[C@@H](CS)C(=O)NCC(=O)O)C(=O)O [reduced glutathione]
- capacity of PDE5a inhibition to blunt the beta-adrenergic response after anti-oxidant pre-treatment [7]: recovered
